Measurements: US8883782B2, “Spiro-tetracyclic ring compounds as beta-secretase modulators and methods of use” (Amgen Inc., priority 2010, dated 2014)
Where two headings read alike, the source gives them in different places.

Tests used:
[1] = molecular target: Beta Secretase enzyme (BACE) (Homo sapiens, UniProt P56817); experiment: In vitro enzymatic BACE FRET (fluorescence resonance energy transfer) assay; assay type: biochemical
In short: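 Acetate buffer (0.05 M, pH 4.2), 10% DMSO final, 100 uM nonionic detergent genapol. Substrate addition (50 nM FRET peptide) initiates; one-hour incubation; Tris raises pH to neutrality before fluorescence measurement.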

[2] = system: Aβ40 in conditioned medium of cells stably expressing Amyloid Precursor Protein (APP); experiment: In vitro BACE cell-based assay (Aβ40 in conditioned medium, sandwich ELISA)
In short: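 Secreted Aβ40 is captured with pAb40 and detected with biotinylated 6E10, read by europium time-resolved fluorescence. IC50 comes from percent inhibition versus concentration.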

[3] = system: Abeta 40 in cerebrospinal fluid (CSF) and brain; experiment: In vivo inhibition of beta-secretase (Abeta 40 reduction in CSF and brain); details: rat, after 4 hrs; for inhibition in vivo at 10 mg/kg: Abeta 40, 10 mg/kg (10 mpk); for inhibition in vivo at 3 mg/kg: Abeta 40, 3 mpk
From the text: In Vivo Inhibition of Beta-Secretase
Several animal models, including mouse, rat, dog, and monkey, may be used to screen for inhibition of beta-secretase activity in vivo following administration of a test compound sample. Animals used in this invention can be wild type, transgenic, or gene knockout animals. […] A separate group of animals receive 2% hydroxypropyl methylcellulose, 1% Tween80 alone, containing no test compound, and serve as a vehicle-control group. At the end of the test period, animals are sacrificed and brain tissues, plasma or cerebrospinal fluid are collected. […] Homogenates are centrifuged at 355,000 g, 4° C. for 30 minutes. CSF or brain supernatants are then analyzed for the presence of A-beta peptide by specific sandwich ELISA assays based on ECL (Electrochemiluminescence) technology. For example, rat Abeta40 is measured using biotinylated-4G8 (Signet) as a capture antibody and Fab40 (an in-house antibody specific to the C-terminal of Abeta40) as a detection antibody.
Actual vehicles used: Oral: 2% HPMC, 1% Tween80, pH 2.2

[4] = average IC50, enzyme assay, read-out: BACE 1 FRET assay
[5] = Homo sapiens, HEK293, average IC50, read-out: HEK cell assay
[6] = CSF, read-out: CSF A-beta reduction % at 10 mg/kg
[7] = brain, read-out: Brain A-beta reduction % at 10 mg/kg
[8] = CSF, read-out: CSF A-beta reduction % at 3 mpk
[9] = brain, read-out: Brain A-beta reduction % at 3 mpk
[10] = Homo sapiens, HEK293, average IC50, HEK cells, read-out: HEK cell assay

Chain of Beta Secretase enzyme (BACE) (P56817 46-501, species assumed): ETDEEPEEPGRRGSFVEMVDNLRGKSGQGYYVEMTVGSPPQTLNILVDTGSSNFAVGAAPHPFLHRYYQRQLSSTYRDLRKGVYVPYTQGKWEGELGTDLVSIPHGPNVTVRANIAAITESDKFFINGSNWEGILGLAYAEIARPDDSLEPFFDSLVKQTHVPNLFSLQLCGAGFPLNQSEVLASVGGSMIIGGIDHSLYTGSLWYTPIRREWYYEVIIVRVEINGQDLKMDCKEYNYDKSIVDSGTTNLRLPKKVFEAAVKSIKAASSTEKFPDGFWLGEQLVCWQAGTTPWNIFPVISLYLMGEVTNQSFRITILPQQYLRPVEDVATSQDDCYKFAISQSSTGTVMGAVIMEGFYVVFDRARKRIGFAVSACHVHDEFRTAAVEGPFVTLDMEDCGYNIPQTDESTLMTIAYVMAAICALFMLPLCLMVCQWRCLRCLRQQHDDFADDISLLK

Compound	IC50 [1, 4] [µM]	IC50 [2, 5] [µM]	inhibition in vivo at 10 mg/kg [3, 6] [%]	inhibition in vivo at 10 mg/kg [3, 7] [%]	also measured
Cc1ccnc(F)c1-c1ccc2c(c1)[C@@]1(COC(N)=N1)c1cc(C3=CCOCC3)ncc1O2 [Example 236, (S)-3-(3,6-dihydro-2H-pyran-4-yl)-7-(2-fluoro-4-methylpyridin-3-yl)-5′H-spiro[chromeno[2,3-c]pyridine-5,4′-oxazol]-2′-amine]	0.0009	0.006	58	34	
NC1=N[C@@]2(CO1)c1cc(-c3cccnc3F)c(F)cc1Oc1c(F)cc(C3=CCOCC3)cc12 (single isomer, unassigned) [Example 867]			56	39	IC50 ([1]; BACE 1 FRET assay (uM)): 0.0003 µM; IC50 ([2]; Homo sapiens, HEK293, read-out: HEK cell assay (uM), average IC50, HEK cells): 0.005 µM
NC1=N[C@@]2(CS1)c1cc(-c3cccnc3F)ccc1Oc1c(F)cc(C3=CCCOC3)cc12 [Example 802, (S)-2′-(5,6-dihydro-2H-pyran-3-yl)-4′-fluoro-7′-(2-fluoropyridin-3-yl)-5H-spiro[thiazole-4,9′-xanthen]-2-amine]	0.0002	0.012	69	57	
CC1(C)C=C(c2cc3c(cn2)Oc2ccc(-c4cncc(F)c4)cc2[C@@]32COC(N)=N2)CCO1 [Example 135, (S)-3-(6,6-dimethyl-3,6-dihydro-2H-pyran-4-yl)-7-(5-fluoropyridin-3-yl)-5′H-spiro[chromeno[2,3-c]pyridine-5,4′-oxazol]-2′-amine]	0.0013	0.01	61	44	
CC#Cc1cncc(-c2ccc3c(c2)[C@@]2(COC(N)=N2)c2cc(-c4cccnc4)nc(F)c2O3)c1 [Example 759, (S)-1-fluoro-7-(5-(prop-1-ynyl)pyridin-3-yl)-3-(pyridin-3-yl)-5′H-spiro[chromeno[2,3-c]pyridine-5,4′-oxazol]-2′-amine]	0.0004	0.003			inhibition in vivo at 3 mg/kg [3, 8]: 43%; inhibition in vivo at 3 mg/kg [3, 9]: 43%
CC(F)(F)COc1cc(F)c2c(c1)[C@]1(CSC(N)=N1)c1cc(-c3cccnc3F)ccc1O2 [Example 724, (4S)-2′-(2,2-difluoropropoxy)-4′-fluoro-7′-(2-fluoro-3-pyridinyl)spiro[1,3-thiazole-4,9′-xanthen]-2-amine]	0.001	0.022	42	27	
Cc1cc(-c2cc3c(c(F)n2)Oc2ccc(-c4cccnc4F)cc2[C@@]32CSC(N)=N2)ccn1 [Example 1037, (S)-1-fluoro-7-(2-fluoropyridin-3-yl)-3-(2-methylpyridin-4-yl)-5′H-spiro[chromeno[2,3-c]pyridine-5,4′-thiazol]-2′-amine]	0.0021	0.049	67	58	
NC1=N[C@@]2(CS1)c1cc(-c3cccnc3F)ccc1Oc1c(F)cc(N3C[C@@H]4C[C@H]3CO4)cc12 [Example 1084, (S)-2′-((1S,4S)-2-oxa-5-azabicyclo[2.2.1]heptan-5-yl)-4′-fluoro-7′-(2-fluoropyridin-3-yl)-5H-spiro[thiazole-4,9′-xanthen]-2-amine]	0.0075	0.102	67	50	
NC1=N[C@@]2(CS1)c1cc(-c3cccnc3F)ccc1Oc1cnc(N3CCOCC3)cc12 [Example 999, (S)-7-(2-fluoropyridin-3-yl)-3-morpholino-5′H-spiro[chromeno[2,3-c]pyridine-5,4′-thiazol]-2′-amine]	0.0005	0.014			CSF A-beta reduction % at 5 mpk ([3]; CSF, Abeta 40, 5 mpk): 58% at 5 mpk; Brain A-beta reduction % at 5 mpk ([3]; brain, Abeta 40, 5 mpk): 40% at 5 mpk
NC1=N[C@@]2(CO1)c1cc(-c3cccnc3)ccc1Oc1cnc(N3CCC(F)(F)C3)cc12 [Example 138, (S)-3-(3,3-difluoropyrrolidin-1-yl)-7-(pyridin-3-yl)-5′H-spiro[chromeno[2,3-c]pyridine-5,4′-oxazol]-2′-amine]	0.0011		67	48	IC50 [2, 10]: 0.0052 µM
COc1nc(-c2ccnc(F)c2)cc2c1Oc1ccc(-c3cccnc3)cc1[C@@]21COC(N)=N1 [Example 839, (S)-3-(2-fluoropyridin-4-yl)-1-methoxy-7-(pyridin-3-yl)-5′H-spiro[chromeno[2,3-c]pyridine-5,4′-oxazol]-2′-amine]	0.0021	0.011	37	23	
CC#Cc1cncc(-c2ccc3c(c2)[C@@]2(COC(N)=N2)c2cc(-c4cnn(C)c4)cc(F)c2O3)c1 [Example 947, (S)-4′-fluoro-2′-(1-methyl-1H-pyrazol-4-yl)-7′-(5-(prop-1-ynyl)pyridin-3-yl)-5H-spiro[oxazole-4,9′-xanthen]-2-amine]	0.0004				IC50 [2, 10]: 0.004 µM; inhibition in vivo at 3 mg/kg [3, 8]: 22%; inhibition in vivo at 3 mg/kg [3, 9]: 25%
NC1=N[C@@]2(CO1)c1cc(-c3cncc(F)c3)ccc1Oc1c2cc(N2CCC(F)(F)CC2)nc1F [Example 927, (S)-3-(4,4-difluoropiperidin-1-yl)-1-fluoro-7-(5-fluoropyridin-3-yl)-5′-H-spiro[chromeno[2,3-c]pyridine-5,4′-oxazol]-2′-amine]	0.0003		70	65	IC50 [2, 10]: 0.01 µM
NC1=N[C@@]2(CS1)c1cc(-c3cccnc3F)ccc1Oc1c(F)cc(-c3ncccn3)cc12 [Example 1079, (S)-4′-fluoro-7′-(2-fluoropyridin-3-yl)-2′-(pyrimidin-2-yl)-5H-spiro[thiazole-4,9′-xanthen]-2-amine]	0.0004	0.012	67	54	
NC1=N[C@@]2(CS1)c1cc(-c3cccnc3F)ccc1Oc1ncc(C3=CCOCC3)cc12 [Example 97, (S)-3-(3,6-dihydro-2H-pyran-4-yl)-7-(2-fluoropyridin-3-yl)-5′H-spiro[chromeno[2,3-b]pyridine-5,4′-thiazol]-2′-amine]	0.0005		46	28	IC50 [2, 10]: 0.0076 µM
CC1(C)C=C(c2cc3c(cn2)Oc2ccc(-c4ccc(F)nc4)cc2[C@@]32COC(N)=N2)CCO1 [Example 369, (S)-3-(6,6-dimethyl-3,6-dihydro-2H-pyran-4-yl)-7-(6-fluoropyridin-3-yl)-5′H-spiro[chromeno[2,3-c]pyridine-5,4′-oxazol]-2′-amine]	0.0028	0.0162	46	31	
CC1(C#Cc2cc3c(nc2F)Oc2ccc(-c4cccnc4F)cc2[C@@]32COC(N)=N2)COC1 [Example 901, (5S)-2-fluoro-7-(2-fluoro-3-pyridinyl)-3-((3-methyl-3-oxetanyl)ethynyl)spiro[chromeno[2,3-b]pyridine-5,4′-[1,3]oxazol]-2′-amine]	0.0005		56	44	IC50 ([2]; average IC50, HEK cells, read-out: HEK cell assay): 0.011 µM
CC(C)(F)COc1cc(F)c2c(c1)[C@]1(COC(N)=N1)c1cc(-c3cncnc3)c(F)cc1O2 [Example 668, (4S)-3′,5′-difluoro-7′-(2-fluoro-2-methylpropoxy)-2′-(5-pyrimidinyl)spiro[1,3-oxazole-4,9′-xanthen]-2-amine]	0.0008				IC50 [2, 10]: 0.011 µM; inhibition in vivo at 3 mg/kg [3, 8]: 55%; inhibition in vivo at 3 mg/kg [3, 9]: 46%
